Test results published in US12440571B2, “Immune agonists” (SHENZHEN UNIVERSITY, priority 2020, dated 2025).
Where two headings read alike, the source gives them in different places.

Key:
Assay type in all cases: cell-based
TLR7 = target: T1, TLR7 (Homo sapiens, UniProt Q9NYK1); assay: Detection of TLR7 activation (HEK-Blue Detection), SEAP reporter; details: for EC50: HEK-Blue hTLR7 cells, 6-16 hrs, absorbance 650 nm
T1 construct: host or cells: HEK-Blue hTLR7 cells (HEK293-derived SEAP reporter line)
T1 sequence (Q9NYK1 27-1049): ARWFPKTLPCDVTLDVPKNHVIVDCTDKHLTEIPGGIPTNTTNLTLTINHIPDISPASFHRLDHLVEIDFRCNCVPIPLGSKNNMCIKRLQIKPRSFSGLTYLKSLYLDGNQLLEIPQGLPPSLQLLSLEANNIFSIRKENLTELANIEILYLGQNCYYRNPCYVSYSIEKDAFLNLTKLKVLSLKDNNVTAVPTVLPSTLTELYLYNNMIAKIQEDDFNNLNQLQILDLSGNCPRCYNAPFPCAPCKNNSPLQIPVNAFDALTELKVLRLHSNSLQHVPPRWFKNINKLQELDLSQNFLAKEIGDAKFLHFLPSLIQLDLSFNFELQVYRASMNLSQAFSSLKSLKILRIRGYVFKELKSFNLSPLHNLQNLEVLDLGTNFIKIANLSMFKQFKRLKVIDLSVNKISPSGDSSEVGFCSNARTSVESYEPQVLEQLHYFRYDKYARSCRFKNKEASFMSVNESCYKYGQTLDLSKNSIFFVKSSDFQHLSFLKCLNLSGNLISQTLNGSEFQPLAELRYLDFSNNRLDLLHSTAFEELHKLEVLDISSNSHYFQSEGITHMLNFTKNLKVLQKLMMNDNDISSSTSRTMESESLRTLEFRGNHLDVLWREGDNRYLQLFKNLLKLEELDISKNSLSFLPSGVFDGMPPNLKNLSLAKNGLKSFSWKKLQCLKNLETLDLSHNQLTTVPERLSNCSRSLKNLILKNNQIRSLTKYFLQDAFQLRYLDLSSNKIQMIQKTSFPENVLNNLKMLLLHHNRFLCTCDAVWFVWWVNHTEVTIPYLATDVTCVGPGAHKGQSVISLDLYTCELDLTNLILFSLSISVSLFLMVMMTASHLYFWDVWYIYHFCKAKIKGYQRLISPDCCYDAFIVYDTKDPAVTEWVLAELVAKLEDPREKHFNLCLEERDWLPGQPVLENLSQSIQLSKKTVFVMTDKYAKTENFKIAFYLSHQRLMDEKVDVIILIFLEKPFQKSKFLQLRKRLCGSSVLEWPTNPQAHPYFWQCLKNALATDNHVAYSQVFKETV
Procedure: HEK-Blue™hTLR7 cells (purchased from InvivoGen) in a logarithmic growth phase were taken, with a growth medium (Gibco, C11995500BT, Invivo Gen, ant-nr) discarded. The cells were gently rinsed twice by an appropriate amount of 37° C. PBS (Hyclone, SH30256.01), a rinsed PBS was discarded. Thereafter, the cells were added with 2-5 mL of 37° C. PBS, incubated for 1 to 2 minutes, and then scraped by a cell scraper and gently pipetted to be dispersed into a single cell suspension. A hemocytometer was adopted to count the cells and a cell concentration was calculated. After that, a HEK-Blue™ Detection solution (purchased from Invivo Gen) was adopted to adjust the cell concentration of the cell suspension to 2.5×10^4/180 μL per well for cell plating on a 96-well cell culture plate. The HEK-Blue™hTLR7 cells were stimulated according to the designed series of GY compound or drug concentrations (0.01 μM, 0.1 μM, 1 μM, 5 μM, 15 μM, and 30 μM), with 3 replicate wells for each concentration, and were incubated at 37° C., 5% carbon dioxide for 6-16 hrs. After the incubation, the absorbance value was read at 650 nm with a full-wavelength microplate reader (BioTek-Epoch), as listed in Table 2.
Relative induction=(average OD value of experimental group−average OD value of negative control group)/average OD value of negative control group.
Specific details for the above method may be referred to https: • //www.invivogen.com/hek-blue-htlr7; https://www.invivogen.com/sites/default/files/invivogen/products/files/hek_blue_htlr7_tds.pdf.

[1] = system: human lymphoma Daudi B cells; assay: CCK8 growth inhibition, Daudi B; details: CCK8 method; read-out: IC50 of inhibitory activity on tumor cell growth, Daudi B
[2] = system: human lymphoma Raji cells; assay: CCK8 growth inhibition, Raji; details: CCK8 method, read-out: IC50 of inhibitory activity on tumor cell growth, Raji
[3] = system: human leukemia HL-60 cells; assay: CCK8 growth inhibition, HL60; details: Homo sapiens, HL-60, CCK8 method; read-out: IC50 of inhibitory activity on tumor cell growth, HL60
[4] = system: murine spleen lymphocytes; assay: Cytokine stimulation of murine spleen lymphocytes, ELISA; details: for EC50: Lymphocyte
Procedure: The stimulating effect of a series of GY compounds or drugs on murine spleen lymphocytes was detected by ELISA.
6-week-old Balb/c mice were sacrificed by cervical dislocation, spleens were taken under aseptic conditions. A 1 mL sterile syringe and a 200 mesh cell strainer were adopted to quickly grind and disperse the spleen into individual cells in 4 mL of a murine lymphocyte separation solution (Dakko's, 7211011). A resulting cell homogenate was transferred to a 15 mL centrifuge tube, then 1 mL of a RPMI 1640 medium (Hyclone, SH30809.01) was slowly added. Spleen lymphocytes were separated by a density gradient centrifugation method (800×g, 30 min), washed, red blood cells therein were lysed, such that a dispersed spleen lymphocyte suspension was obtained. Cells were counted by a hemocytometer, to calculate the cell concentration. A RPMI 1640 complete medium was adopted to adjust the cell suspension to a concentration of 1×10^6/ml/well, and the cells were then plated on a 24-well cell culture plate (Corning, 3524).
Murine spleen lymphocytes were stimulated according to the gradient concentrations of the series of GY compounds or drugs, and incubated in a 37° C., 5% carbon dioxide incubator for 24 hrs.
• (1) Coating: a Capture antibody (primary antibody, purchased from Invitrogen) was diluted with a 1×Coating Buffer (coating buffer, purchased from Invitrogen) to a recommended concentration, and 100 μL of a resulting diluted solution was added to each well of a 96-well microtiter plate, the plate was sealed with a sealing film at 4° C. overnight. • (2) Washing: a liquid in each well was discarded, then 300 μL of a PBST working solution was added to each well and kept for 1 min, thereafter, the liquid therein was discarded. The washing process was repeated 3 times. • (3) Blocking: 200 μL of a blocking solution was added to each well. The plate was sealed with a sealing film, and placed on a shaker and incubated at room temperature for 1 hr, then washed and patted to be dry. • (4) Sample incubation: a sample was collected and centrifuged to collect a supernatant. Standards, samples, negative controls, and blank controls were provided in the 96-well microtiter plate, and each concentration or sample were provided with 2 replicates. 100 μL of a standard or sample was added to each well, thereafter, the plate was sealed with a sealing film, incubated on a shaker at room temperature for 1 hr or overnight at 4° C., then washed and pated to be dry. • (5) Secondary antibody incubation: the detection antibody (secondary antibody, purchased from Invitrogen) was diluted to a recommended concentration with a dilution buffer, 100 μL of a secondary antibody was added to each well. After being sealed with a sealing film, the plate was incubated on a shaker at room temperature for 1 hr, then washed and patted to be dry. • (6) Avidin-HRP incubation: Avidin-HRP (horseradish peroxidase marker, purchased from Invitrogen) was diluted to the recommended concentration with a dilution buffer, 100 μL of Avidin-HRP was added to each well. After being sealed with a sealing film, the plate was placed on a shaker and incubated at room temperature for 30 mins, washed 5-7 times by the process of step 2), and patted to be dry. • (7) TMB color development: 100 μL of a TMB color development solution (purchased from Invitrogen) was added to each well, for carrying out reaction for 15 mins at room temperature in the dark. • (8) Stopping reaction: 50 μL of 1M H2SO4 solution was added to each well. • (9) Reading an absorbance value by a microplate reader: the OD value at 450 nm wavelength was read. A standard curve and a parameter nonlinear regression equation were drawn, and a sample concentration was calculated according to the obtained formula.

[5] = mouse immune cells (spleen lymphocytes), 24 hrs, ELISA, read-out: IFN-gamma EC50 of cytokine stimulating activity
[6] = mouse immune cells (spleen lymphocytes), 24 hrs, ELISA, read-out: IL-6 EC50 of cytokine stimulating activity
[7] = mouse immune cells (spleen lymphocytes), 24 hrs, ELISA, read-out: TNF-alpha EC50 of cytokine stimulating activity

Structure (SMILES)	EC50 (TLR7; read-out: TLR7(EC50/μM)) [µM]	EC50 [4, 5] [nM]	EC50 [4, 6] [nM]	EC50 [4, 7] [nM]	further results
CCCCOc1nc(N)c2nc(O)n(Cc3cn(CCOCCOCCOCCNC(=S)N4CCC(C5CCNc6c(C(N)=O)c(-c7ccc(Oc8ccccc8)cc7)nn65)CC4)nn3)c2n1 (single isomer, unassigned) [GY134]	1.99				IC50 [1]: 6990 nM; IC50 ([2]; Homo sapiens, Raji): 5120 nM
CCCCOc1nc(N)c2nc(O)n(Cc3cn(CCOCCOCCOCCNC(=S)N4CCC(C5CCNc6c(C(N)=O)c(-c7ccc(Oc8ccccc8)cc7)nn65)CC4)nn3)c2n1 (single isomer, unassigned) [GY135]	9.07				IC50 [3]: 13100 nM; IC50 [1]: 14600 nM; IC50 [2]: 7600 nM
CCOCc1nc2c(N)nc3ccccc3c2n1CC(C)(C)O [Compound R848, Resiquimod, reference compound]		56	< 1	< 1	
C#CCn1c(O)nc2c(N)nc(OCCCC)nc21 [GY100]	2.25	104	< 1	< 1	TLR7 agonist activity (in words) (TLR7): highly active TLR7 agonist
CCCCOc1nc(N)c2nc(O)n(Cc3cn(CCOCCOCCOCC(=O)O)nn3)c2n1 [GY101]	0.003	122	1050	7	
CCCCOc1nc(N)c2nc(O)n(Cc3cn(CCOCCOCCOCCN)nn3)c2n1 [GY102]	0.79	1070	637	1440	
CCCCOc1nc(N)c2nc(O)n(Cc3cn(CCCCCCCCCCCCP(=O)(O)O)nn3)c2n1 [GY103]	0.86	3340	1510	2620	
CCCCOc1nc(N)c2nc(O)n(Cc3cn(CCOCCOCCOCCN=C=S)nn3)c2n1 [GY106]					EC50 (TLR7; TLR7(EC50/μM)): 0.08 µM; EC50 ([4]; Mus musculus, 24 h, read-out: IFN-gamma EC50 of cytokine stimulating activity): 2830 nM; EC50 ([4]; Mus musculus, 24 h, read-out: IL-6 EC50 of cytokine stimulating activity): < 1 nM; EC50 ([4]; Mus musculus, 24 h, read-out: TNF-alpha EC50 of cytokine stimulating activity): < 1 nM
C=C(CC(=O)NCCOCCOCCOCCn1cc(Cn2c(O)nc3c(N)nc(OCCCC)nc32)nn1)C(=O)O [GY109]	0.65	983	653	153	
CCCCOc1nc(N)c2nc(O)n(Cc3cn(CCOCCOCCOCCNC(=O)CCC(=O)Nc4cccc5c4CN(C4CCC(=O)NC4=O)C5=O)nn3)c2n1 (stereo not drawn) [GY110]	3.17				
CCCCOc1nc(N)c2nc(O)n(Cc3cn(CCOCCOCCOCCNC(=O)c4cc(/N=N/c5ccc(S(=O)(=O)Nc6ccccn6)cc5)ccc4O)nn3)c2n1 [GY113]	1.87				
CCCCOc1nc(N)c2nc(O)n(Cc3cn(CCOCCOCCOCCNC(=O)c4cc5c(Oc6ccc(NC(=O)NC7CC7)c(Cl)c6)ccnc5cc4OC)nn3)c2n1 [GY114]	1.98				
CCCCOc1nc(N)c2nc(O)n(Cc3cn(CCOCCOCCOc4c(OC)cc(/C=C/C(=O)N5CCC=CC5=O)cc4OC)nn3)c2n1 [GY117]	0.22				IC50 [3]: 19000 nM
CCCCOc1nc(N)c2nc(O)n(Cc3cn(CCOCCOCCOCCNC(=S)NC(CCC(=O)NC(CS)C(=O)NCC(=O)O)C(=O)O)nn3)c2n1 (stereo not drawn) [GY126]	0.92				
CCCCOc1nc(N)c2nc(O)n(Cc3cn(CCCCCCCCCCCCCCC(=O)O)nn3)c2n1 [GY145]	0.29				
CCCCOc1nc(N)c2nc(O)n(Cc3cn(CCOCCOCCOCC(=O)NO)nn3)c2n1 [GY163]		7860	1100	58	
CCCCOc1nc(N)c2nc(O)n(Cc3cn(CCOCCOCCOCCNC(=S)NNCCc4ccccc4)nn3)c2n1 [GY164]		10	5930	1	
CC(C)Cn1cnc2c(N)nc3ccccc3c21 [Imiquimod, reference compound]			8300	8350	IFN-gamma EC50 of cytokine stimulating activity ([4]; mouse immune cells (spleen lymphocytes), 24 hrs, ELISA): No fit
